Literature values in patent US20120245028A1, “Methods for Use of Tetraalkyl Ammonium Halide Compositions as Post-emergence Higher Plant Herbicides” (priority 2011, published 2012).

What was measured:
[1] = system: small apple tree seedlings; settings: following fungus inoculation and a treatment with 5% solution
[2] = system: infected field apple trees; settings: infected field apple trees treated with 5% solution

SMILES: CCCCCCCCCC[N+](C)(C)CCCCCCCCCC.[Br-] [DDAB, didecyl dimethyl ammonium bromide]
- phytotoxicity [1]: severe phytotoxicity
- damage caused by the treatments [2]: no obvious damage
- effect upon the total number of growing buds [2]: no effect
